US20090226527A1, “Particulate-stabilized injectable pharmacutical compositions of posaconazole” (priority 2004, published 2009)
Converted amounts (≈) assume the structure as drawn.

Test system: infectious agents (strains tested)
Experiment: organism not typed
Type: cell-based

CCC(C)n1ncn(-c2ccc(N3CCN(c4ccc(OCC5COC(Cn6cncn6)(c6ccc(Cl)cc6Cl)O5)cc4)CC3)cc2)c1=O (stereo not shown) [Itraconazole]
MIC (Absidia spp, read-out: Geometric Mean MIC): 0.229 µg/mL (≈ 0.325 µM)
MIC (Absidia spp, read-out: MIC[90]): 0.063 to 2 µg/mL (≈ 0.0893 to 2.83 µM)
MIC (Alternaria spp, read-out: Geometric Mean MIC): 0.326 µg/mL (≈ 0.462 µM)
MIC (Alternaria spp, read-out: MIC[90]): 1 µg/mL (≈ 1.42 µM)
MIC (Apophysomyces spp, read-out: Geometric Mean MIC): 0.707 µg/mL (≈ 1 µM)
MIC (Apophysomyces spp, read-out: MIC[90]): 0.031 to 8 µg/mL (≈ 0.0439 to 11.3 µM)
MIC (Arthroderma terrestre, Trichophyton terrestre, read-out: Geometric Mean MIC): 0.25 µg/mL (≈ 0.354 µM)
MIC (Arthroderma terrestre, Trichophyton terrestre, read-out: MIC[90]): 0.25 µg/mL (≈ 0.354 µM)
MIC (Aspergillus flavus, read-out: Geometric Mean MIC): 0.213 µg/mL (≈ 0.302 µM)
MIC (Aspergillus flavus, read-out: MIC[90]): 1 µg/mL (≈ 1.42 µM)
MIC (Aspergillus fumigatus, read-out: Geometric Mean MIC): 0.397 µg/mL (≈ 0.563 µM)
MIC (Aspergillus fumigatus, read-out: MIC[90]): 1 µg/mL (≈ 1.42 µM)
MIC (Aspergillus nidulans, read-out: Geometric Mean MIC): 0.186 µg/mL (≈ 0.264 µM)
MIC (Aspergillus nidulans, read-out: MIC[90]): 0.5 µg/mL (≈ 0.709 µM)
MIC (Aspergillus niger, read-out: Geometric Mean MIC): 0.834 µg/mL (≈ 1.18 µM)
MIC (Aspergillus niger, read-out: MIC[90]): 2 µg/mL (≈ 2.83 µM)
MIC (Aspergillus sydowii, read-out: Geometric Mean MIC): 0.5 µg/mL (≈ 0.709 µM)
MIC (Aspergillus sydowii, read-out: MIC[90]): 0.125 to 2 µg/mL (≈ 0.177 to 2.83 µM)
MIC (Aspergillus terreus, read-out: Geometric Mean MIC): 0.229 µg/mL (≈ 0.325 µM)
MIC (Aspergillus terreus, read-out: MIC[90]): 0.5 µg/mL (≈ 0.709 µM)
MIC (Aspergillus ustus, read-out: Geometric Mean MIC): 0.906 µg/mL (≈ 1.28 µM)
MIC (Aspergillus ustus, read-out: MIC[90]): 0.125 to 2 µg/mL (≈ 0.177 to 2.83 µM)
MIC (Bipolaris spp, read-out: Geometric Mean MIC): 0.25 µg/mL (≈ 0.354 µM)
MIC (Bipolaris spp, read-out: MIC[90]): 0.25 µg/mL (≈ 0.354 µM)
MIC (Bjerkandera adusta, read-out: Geometric Mean MIC): 0.057 µg/mL (≈ 0.0808 µM)
MIC (Bjerkandera adusta, read-out: MIC[90]): 0.063 µg/mL (≈ 0.0893 µM)
MIC (Blastomyces dermatitidis, read-out: Geometric Mean MIC): 0.045 µg/mL (≈ 0.0638 µM)
MIC (Blastomyces dermatitidis, read-out: MIC[90]): 2 µg/mL (≈ 2.83 µM)
MIC (Candida albicans, read-out: Geometric Mean MIC): 0.064 µg/mL (≈ 0.0907 µM)
MIC (Candida albicans, read-out: MIC[90]): 0.25 µg/mL (≈ 0.354 µM)
MIC (Candida dubliniensis, read-out: Geometric Mean MIC): 0.107 µg/mL (≈ 0.152 µM)
MIC (Candida dubliniensis, read-out: MIC[90]): 0.5 µg/mL (≈ 0.709 µM)
MIC (Candida tropicalis, read-out: Geometric Mean MIC): 0.167 µg/mL (≈ 0.237 µM)
MIC (Candida tropicalis, read-out: MIC[90]): 0.5 µg/mL (≈ 0.709 µM)
MIC (Clavispora lusitaniae, Candida lusitaniae, read-out: Geometric Mean MIC): 0.216 µg/mL (≈ 0.306 µM)
MIC (Clavispora lusitaniae, Candida lusitaniae, read-out: MIC[90]): 1 µg/mL (≈ 1.42 µM)
MIC (Coccidioides immitis, read-out: Geometric Mean MIC, Coccidioides immitis): 0.198 µg/mL (≈ 0.281 µM)
MIC (Coccidioides immitis, read-out: MIC[90], Coccidioides immitis): 0.25 µg/mL (≈ 0.354 µM)
MIC (Cryptococcus neoformans, read-out: Geometric Mean MIC): 0.444 µg/mL (≈ 0.629 µM)
MIC (Cryptococcus neoformans, read-out: MIC[90]): 4 µg/mL (≈ 5.67 µM)
MIC (Curvularia spp, read-out: Geometric Mean MIC): 0.5 µg/mL (≈ 0.709 µM)
MIC (Curvularia spp, read-out: MIC[90]): 0.5 µg/mL (≈ 0.709 µM)
MIC (Debaryomyces hansenii, Candida famata, read-out: Geometric Mean MIC): 0.348 µg/mL (≈ 0.493 µM)
MIC (Debaryomyces hansenii, Candida famata, read-out: MIC[90]): 1 µg/mL (≈ 1.42 µM)
MIC (Diutina rugosa, Candida rugosa, read-out: Geometric Mean MIC): 0.196 µg/mL (≈ 0.278 µM)
MIC (Diutina rugosa, Candida rugosa, read-out: MIC[90]): 4 µg/mL (≈ 5.67 µM)
MIC (Dujonia zeylanoides, Candida zeylanoides, read-out: Geometric Mean MIC): 0.105 µg/mL (≈ 0.149 µM)
MIC (Dujonia zeylanoides, Candida zeylanoides, read-out: MIC[90]): 0.031 to 0.5 µg/mL (≈ 0.0439 to 0.709 µM)
MIC (Epidermophyton floccosum, read-out: Geometric Mean MIC): 0.088 µg/mL (≈ 0.125 µM)
MIC (Epidermophyton floccosum, read-out: MIC[90]): 32 µg/mL (≈ 45.3 µM)
MIC (Exophiala dermatidis, read-out: Geometric Mean MIC): 1 µg/mL (≈ 1.42 µM)
MIC (Exophiala dermatidis, read-out: MIC[90]): 1 µg/mL (≈ 1.42 µM)
MIC (Exophiala dermatitidis, Wangiella dermatitidis, read-out: Geometric Mean MIC): 0.5 µg/mL (≈ 0.709 µM)
MIC (Exophiala dermatitidis, Wangiella dermatitidis, read-out: MIC[90]): 0.063 to 1 µg/mL (≈ 0.0893 to 1.42 µM)
MIC (Exophiala jeanselmei, read-out: Geometric Mean MIC): 0.467 µg/mL (≈ 0.662 µM)
MIC (Exophiala jeanselmei, read-out: MIC[90]): 1 µg/mL (≈ 1.42 µM)
MIC (Exophiala moniliae, read-out: Geometric Mean MIC): 0.031 µg/mL (≈ 0.0439 µM)
MIC (Exophiala moniliae, read-out: MIC[90]): 0.031 µg/mL (≈ 0.0439 µM)
MIC (Fonsecae pedrosoi, read-out: Geometric Mean MIC): 0.063 µg/mL (≈ 0.0893 µM)
MIC (Fonsecae pedrosoi, read-out: MIC[90]): 0.008 to 0.5 µg/mL (≈ 0.0113 to 0.709 µM)
MIC (Fusarium spp, read-out: Geometric Mean MIC): 13.3 µg/mL (≈ 18.8 µM)
MIC (Fusarium spp, read-out: MIC[90]): 16 µg/mL (≈ 22.7 µM)
MIC (Hansenula anomala, Pichia anomala, read-out: Geometric Mean MIC): 0.375 µg/mL (≈ 0.531 µM)
MIC (Hansenula anomala, Pichia anomala, read-out: MIC[90]): 1 µg/mL (≈ 1.42 µM)
MIC (Histoplasma capsulatum, read-out: Geometric Mean MIC, Histoplasma capsulatum): 0.018 µg/mL (≈ 0.0255 µM)
MIC (Histoplasma capsulatum, read-out: MIC[90], Histoplasma capsulatum): 0.063 µg/mL (≈ 0.0893 µM)
MIC (Kluyveromyces marxianus, Candida kefyr, read-out: Geometric Mean MIC): 0.188 µg/mL (≈ 0.266 µM)
MIC (Kluyveromyces marxianus, Candida kefyr, read-out: MIC[90]): 0.5 µg/mL (≈ 0.709 µM)
MIC (Kluyveromyces marxianus, read-out: Geometric Mean MIC): 0.07 µg/mL (≈ 0.0992 µM)
MIC (Kluyveromyces marxianus, read-out: MIC[90]): 0.031 to 0.125 µg/mL (≈ 0.0439 to 0.177 µM)
MIC (Lodderomyces parapsilosis, Candida parapsilosis, read-out: Geometric Mean MIC): 0.161 µg/mL (≈ 0.228 µM)
MIC (Lodderomyces parapsilosis, Candida parapsilosis, read-out: MIC[90]): 0.5 µg/mL (≈ 0.709 µM)
MIC (Meyerozyma guilliermondii, Candida guilliermondii, read-out: Geometric Mean MIC): 0.479 µg/mL (≈ 0.679 µM)
MIC (Meyerozyma guilliermondii, Candida guilliermondii, read-out: MIC[90]): 1 µg/mL (≈ 1.42 µM)
MIC (Microsporum audouinii, read-out: Geometric Mean MIC): 0.125 µg/mL (≈ 0.177 µM)
MIC (Microsporum audouinii, read-out: MIC[90]): 0.125 µg/mL (≈ 0.177 µM)
MIC (Microsporum canis, read-out: Geometric Mean MIC): 0.041 µg/mL (≈ 0.0581 µM)
MIC (Microsporum canis, read-out: MIC[90]): 2 µg/mL (≈ 2.83 µM)
MIC (Mucor spp, read-out: Geometric Mean MIC): 2.38 µg/mL (≈ 3.37 µM)
MIC (Mucor spp, read-out: MIC[90]): 16 µg/mL (≈ 22.7 µM)
MIC (Nakaseomyces glabratus, Candida glabrata, read-out: Geometric Mean MIC): 0.853 µg/mL (≈ 1.21 µM)
MIC (Nakaseomyces glabratus, Candida glabrata, read-out: MIC[90]): 4 µg/mL (≈ 5.67 µM)
MIC (Nannizzia fulva, Microsporum fulvum, read-out: Geometric Mean MIC): 4 µg/mL (≈ 5.67 µM)
MIC (Nannizzia fulva, Microsporum fulvum, read-out: MIC[90]): 4 µg/mL (≈ 5.67 µM)
MIC (Nannizzia gypsea, Microsporum gypseum, read-out: Geometric Mean MIC): 0.044 µg/mL (≈ 0.0624 µM)
MIC (Nannizzia gypsea, Microsporum gypseum, read-out: MIC[90]): 0.016 to 0.5 µg/mL (≈ 0.0227 to 0.709 µM)
MIC (Nannizzia persicolor, Microsporum persicolor, read-out: Geometric Mean MIC): 0.5 µg/mL (≈ 0.709 µM)
MIC (Nannizzia persicolor, Microsporum persicolor, read-out: MIC[90]): 0.5 µg/mL (≈ 0.709 µM)
MIC (Paecilomyces spp, read-out: Geometric Mean MIC): 0.64 µg/mL (≈ 0.907 µM)
MIC (Paecilomyces spp, read-out: MIC[90]): 2 µg/mL (≈ 2.83 µM)
MIC (Papiliotrema laurentii, Cryptococcus laurentii, read-out: Geometric Mean MIC): 0.397 µg/mL (≈ 0.563 µM)
MIC (Papiliotrema laurentii, Cryptococcus laurentii, read-out: MIC[90]): 0.25 to 0.5 µg/mL (≈ 0.354 to 0.709 µM)
MIC (Paracoccidioides brasiliensis, read-out: Geometric Mean MIC, Paracoccidioides brasiliensis): 0.025 µg/mL (≈ 0.0354 µM)
MIC (Paracoccidioides brasiliensis, read-out: MIC[90], Paracoccidioides brasiliensis): 0.063 µg/mL (≈ 0.0893 µM)
MIC (Penicillium spp, read-out: Geometric Mean MIC): 0.853 µg/mL (≈ 1.21 µM)
MIC (Penicillium spp, read-out: MIC[90]): 2 µg/mL (≈ 2.83 µM)
MIC (Pichia kudriavzevii, Candida krusei, read-out: Geometric Mean MIC): 0.576 µg/mL (≈ 0.816 µM)
MIC (Pichia kudriavzevii, Candida krusei, read-out: MIC[90]): 1 µg/mL (≈ 1.42 µM)
MIC (Pleurothecium obovoideum, Ramichloridium obovoideum, read-out: Geometric Mean MIC): 0.016 µg/mL (≈ 0.0227 µM)
MIC (Pleurothecium obovoideum, Ramichloridium obovoideum, read-out: MIC[90]): 0.016 µg/mL (≈ 0.0227 µM)
MIC (Rhizomucor spp, read-out: Geometric Mean MIC): 0.016 µg/mL (≈ 0.0227 µM)
MIC (Rhizomucor spp, read-out: MIC[90]): 0.016 µg/mL (≈ 0.0227 µM)
MIC (Rhizopus spp, read-out: Geometric Mean MIC): 3.28 µg/mL (≈ 4.65 µM)
MIC (Rhizopus spp, read-out: MIC[90]): 16 µg/mL (≈ 22.7 µM)
MIC (Saccharomyces cerevisiae, read-out: Geometric Mean MIC): 0.418 µg/mL (≈ 0.592 µM)
MIC (Saccharomyces cerevisiae, read-out: MIC[90]): 2 µg/mL (≈ 2.83 µM)
MIC (Scedosporium apiospermum, read-out: Geometric Mean MIC): 1.34 µg/mL (≈ 1.9 µM)
MIC (Scedosporium apiospermum, read-out: MIC[90]): 32 µg/mL (≈ 45.3 µM)
MIC (Scedosporium boydii, Pseudallescheria boydii, read-out: Geometric Mean MIC): 0.506 µg/mL (≈ 0.717 µM)
MIC (Scedosporium boydii, Pseudallescheria boydii, read-out: MIC[90]): 1 µg/mL (≈ 1.42 µM)
MIC (Sporothrix schenckii, read-out: Geometric Mean MIC): 0.302 µg/mL (≈ 0.428 µM)
MIC (Sporothrix schenckii, read-out: MIC[90]): 0.5 µg/mL (≈ 0.709 µM)
MIC (Trichophyton mentagrophytes, read-out: Geometric Mean MIC): 0.041 µg/mL (≈ 0.0581 µM)
MIC (Trichophyton mentagrophytes, read-out: MIC[90]): 0.25 µg/mL (≈ 0.354 µM)
MIC (Trichophyton rubrum, Trichophyton raubitschekii, read-out: Geometric Mean MIC): 0.25 µg/mL (≈ 0.354 µM)
MIC (Trichophyton rubrum, Trichophyton raubitschekii, read-out: MIC[90]): 0.25 µg/mL (≈ 0.354 µM)
MIC (Trichophyton rubrum, read-out: Geometric Mean MIC): 0.074 µg/mL (≈ 0.105 µM)
MIC (Trichophyton rubrum, read-out: MIC[90]): 0.25 µg/mL (≈ 0.354 µM)
MIC (Trichophyton soudanense, read-out: Geometric Mean MIC): 4 µg/mL (≈ 5.67 µM)
MIC (Trichophyton soudanense, read-out: MIC[90]): 4 µg/mL (≈ 5.67 µM)
MIC (Trichophyton tonsurans, read-out: Geometric Mean MIC): 0.036 µg/mL (≈ 0.051 µM)
MIC (Trichophyton tonsurans, read-out: MIC[90]): 0.063 µg/mL (≈ 0.0893 µM)
MIC (Trichosporon spp, read-out: Geometric Mean MIC): 1.12 µg/mL (≈ 1.59 µM)
MIC (Trichosporon spp, read-out: MIC[90]): 0.5 to 2 µg/mL (≈ 0.709 to 2.83 µM)
